Target: CUL4A-DDB1-BPB interaction (Homo sapiens (Human), UniProt Q16531)
Test: AlphaLISA in vitro binding assay, CUL4A and DDB1-BPB binding
Conditions: inhibition of CUL4A and DDB1-BPB binding
Excerpt: AlphaLISA IC50 (see Table 1, column 4) means the half maximal inhibitory concentration of compound that inhibits CUL4A and DDB1-BPB binding. Our lab established and optimized 384 well-based AlphaLISA in vitro binding assay for testing small molecule inhibitory activity. Small molecule libraries were screened for compounds that disrupt CUL4A-DDB1-BPB interaction using AlphaScreen detection beads (PerkinElmer, #AL112C and #6765300) following the manufacturer's protocol (https://www.perkinelmer.com/PDFs/downloads/GDE-Alphatech.pdf, hereby incorporated by reference in its entirety for all purposes). The 384-well assay plates (Greiner Bio-one, #781075) were read in Synergy Neo2 Hybrid Multi-Mode Reader (BioTek). The IC50 was calculated by Prism 8 XY analysis nonlinear regression (curve fit-Log(inhibitor) vs response).

Sequence of CUL4A-DDB1-BPB interaction (Q16531 403-706): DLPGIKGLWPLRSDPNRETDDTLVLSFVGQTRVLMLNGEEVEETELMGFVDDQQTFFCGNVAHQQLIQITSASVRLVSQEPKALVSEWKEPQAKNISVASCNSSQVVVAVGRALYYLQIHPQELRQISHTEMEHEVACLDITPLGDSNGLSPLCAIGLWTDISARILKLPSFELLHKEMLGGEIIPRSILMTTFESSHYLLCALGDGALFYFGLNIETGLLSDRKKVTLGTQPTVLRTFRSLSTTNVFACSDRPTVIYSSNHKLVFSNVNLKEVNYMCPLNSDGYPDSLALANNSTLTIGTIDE

IC50 | AlphaLisa IC50 | Structure (SMILES)
9.04 ± 0.89 µM | – | CS(=O)(=O)c1ccc(-c2nc(C(=O)O)nc3c2[nH]c2ccccc23)cc1 [PA70, 4-(4-methylsulfonylphenyl)-5H-pyrimido[5,4-b]indole-2-carboxylic acid]
0.96 ± 0.096 µM | – | NS(=O)(=O)c1ccc(-c2nc(C(=O)O)cc3c2[nH]c2ccccc23)cc1 [PA49, 1-(4-sulfamoylphenyl)-9H-pyrido[3,4-b]indole-3-carboxylic acid]
23.1 ± 4.02 µM | – | O=C(O)c1cc2c([nH]c3ccccc32)c(-c2ncc[nH]2)n1 [PA27]
0.81 ± 0.21 µM | – | CN(C)S(=O)(=O)c1ccc(-c2nc(C(=O)O)cc3c2[nH]c2ccccc23)cc1 [PA50, 1-[4-(dimethylsulfamoyl)phenyl]-9H-pyrido[3,4-b]indole-3-carboxylic acid]
32.2 ± 7.89 µM | – | Cn1c2ccccc2c2cc(C(=O)O)nc(-c3ccc([N+](=O)[O-])cc3)c21 [PA14, 9-methyl-1-(4-nitrophenyl)pyrido[3,4-b]indole-3-carboxylic acid]
– | Neg | O=[N+]([O-])c1ccc(-c2nc(Br)cc3c2[nH]c2ccc(Br)cc23)cc1 [PA30, 3,6-dibromo-1-(4-nitrophenyl)-9H-pyrido[3,4-b]indole]
2.38 ± 0.9 µM | – | N#Cc1cccc(-c2nc(C(=O)O)cc3c2[nH]c2ccccc23)c1 [PA23]
3.79 ± 1.02 µM | – | Cc1c(/C(=N\CC(=O)O)c2ccc3[nH]ncc3c2)[nH]c2ccccc12 [PA29]
3.4 ± 0.88 µM | – | O=C(O)c1cc2c([nH]c3ccccc32)c(-c2ccc(CO)cc2)n1 [PA21]
34.8 ± 8.75 µM | – | O=C(O)c1cc2c([nH]c3ccccc32)c(-c2ccc3[nH]ccc3c2)n1 [PA28, 1-(1H-indol-5-yl)-9H-pyrido[3,4-b]indole-3-carboxylic acid]
4.81 ± 0.96 µM | – | CN1C=C(c2nc(C(=O)O)cc3c2[nH]c2ccccc23)C=NC1 [PA26]
36.5 ± 9.9 µM | – | O=C(O)c1cc2c([nH]c3ccccc32)c(-c2ccc(C#Cc3ccccc3)cc2)n1 [PA62]
14.7 ± 3.25 µM | – | O=C(O)c1cc2c([nH]c3ccccc32)c(-c2cccc(O)c2)n1 [PA22]
5.5 ± 1.89 µM | – | O=C(O)c1cc2c([nH]c3ccccc32)c(-c2ccc(-c3ccc(F)cc3)cc2)n1 [PA58]
3.86 ± 0.59 µM | – | CS(=O)(=O)c1ccc(-c2ccc(-c3nc(C(=O)O)cc4c3[nH]c3ccccc34)cc2)cc1 [PA61]
0.94 ± 0.24 µM | – | CCS(=O)(=O)c1ccc(-c2nc(C(=O)O)cc3c2[nH]c2ccccc23)cc1 [PA45, 1-(4-ethylsulfonylphenyl)-9Hpyrido[3,4-b]indole-3-carboxylic acid]
– | Neg | NS(=O)(=O)c1cc2c([nH]c3ccc(Cl)cc32)c(-c2ccc([N+](=O)[O-])cc2)n1 [PA41, 6-chloro-1-(4-nitrophenyl)-9H-pyrido[3,4-b]indole-3-sulfonamide]
– | Neg | CS(=O)(=O)Nc1cc2c([nH]c3ccccc32)c(-c2ccc([N+](=O)[O-])cc2)n1 [PA38, N-[1-(4-nitrophenyl)-9H-pyrido[3,4-b]indol-3-yl]methanesulfonamide]
25 ± 12.5 µM | – | Cc1ccc(-c2ccc(-c3nc(C(=O)O)cc4c3[nH]c3ccccc34)cc2)cc1 [PA59]
7.1 ± 0.61 µM | – | O=C(O)c1cc2c([nH]c3ccccc32)c(-c2cccc([N+](=O)[O-])c2)n1 [PA36]
1.52 ± 0.19 µM | – | O=C(O)c1cc2c([nH]c3ccccc32)c(-c2ccc(NS(=O)(=O)c3ccccc3)cc2)n1 [PA77, 1-[4-(benzenesulfonamido)phenyl]-9H-pyrido[3,4-b]indole-3-carboxylic acid]
3.54 ± 0.68 µM | – | O=C(O)c1cc2c([nH]c3ccccc32)c(-c2ccc(F)c(F)c2)n1 [PA32]
3.97 ± 0.79 µM | – | O=C(O)c1cc2c([nH]c3ccccc32)c(-c2cccc(Cl)c2)n1 [PA6]

Structure (SMILES) | IC50 | AlphaLisa IC50
COCCOCC#Cc1ccc(-c2nc(C(=O)O)cc3c2[nH]c2ccccc23)cc1 [PA63] | 5.05 ± 0.2 µM | –

Source: patent publication US20250188078A1, “SMALL MOLECULE INHIBITORS OF THE CRL4 UBIQUITIN LIGASE” (Cornell University, priority 2022, published 2025)
